Patent US11401555B2, “Genetic polymorphisms associated with stroke, methods of detection and uses thereof” (CELERA CORPORATION, priority 2008, dated 2022)

Assays:
[1] = Stroke statin response (SSR) in the CARE pravastatin trial: pravastatin-treated versus placebo-treated, by SNP genotype; format: in vivo, human; settings: for HR (hazard ratio for stroke, pravastatin vs placebo): rs10757274 (hCV26505812), mode GEN, genotype AA, placebo = ref
Text: (hCV26505812) for association with SSR in CARE (Table 37) and PROSPER (Table 38), including both unadjusted and adjusted analyses (adjusted for factors such as age, gender, smoking status, hypertension, diabetes, BMI, and LDL and HDL levels). Table 37 provides results in CARE, and Table 38 provides results in PROSPER (whether each analysis is unadjusted or adjusted is indicated in the “adjust” column in Table 37, or by “unadj” and “adj” column labels in Tables 38). With respect to Tables 22-32 and 37-38, the columns labeled “Genotype” (in Tables 22-28 and 37), “Geno_Placebo” (in Tables 29-30 and 38), and “Geno_Resp” (in Tables 31-32 and 38) indicate the genotype which the given stroke risk or SSR results correspond to. […] See Example Six below for further information relating to Tables 22-32 and 37-38. […] As used herein, the term “benefit” (with respect to a preventive or therapeutic drug treatment) is defined as achieving a reduced risk for a disease that the drug is intended to treat or prevent (e.g., stroke) by administrating the drug treatment, compared with the risk for the disease in the absence of receiving the drug treatment (or receiving a placebo in lieu of the drug treatment) for the same genotype. The term “benefit” may be used herein interchangeably with terms such as “respond positively” or “positively respond”. For stroke risk and statin response associations based on samples from the CARE and PROSPER trials described herein, stroke risk is assessed by comparing the risk of stroke for a given genotype with the risk of stroke for a reference genotype either in the placebo arm of the trial or in the whole study population of the trial, and statin response is assessed by comparing the risk of stroke in the pravastatin arm of the trial with the risk of stroke in the placebo arm of the trial for the same genotype. […] In CARE, SNPs were analyzed for association with stroke risk or SSR. […] Also in the CARE and PROSPER trials, the chromosome 9p21 SNP […] (hCV26505812) was analyzed further for association with SSR, including unadjusted and adjusted analysis. Adjusted analysis in CARE (Table 37) was adjusted for age, gender, smoking status, hypertension, diabetes, body mass index (BMI), and LDL and HDL levels, and adjusted analysis in PROSPER (Table 38) was adjusted for country, gender, age, LDL, HDL, smoking status (current vs. past or never), history of hypertension, and diabetes. Table 37 provides results in CARE, and Table 38 provides results in PROSPER (whether each analysis is unadjusted or adjusted is indicated in the “adjust” column in Table 37, or by “unadj” and “adj” column labels in Tables 38). All the p-values (including Pint values) provided in Tables 37-38 are two-sided p-values.

[2] = Stroke statin response (SSR) in the PROSPER pravastatin trial: pravastatin-treated versus placebo-treated, by SNP genotype; format: in vivo, human

Which “HR (hazard ratio) for stroke events, pravastatin-treated versus placebo-treated” value ([1]; heterozygous carriers of SNP rs10757274 (chromosome 9p21), adjusted for traditional risk factors) does the source give for `CC[C@H](C)C(=O)O[C@H]1C[C@H](O)C=C2C=C[C@H](C)[C@H](CC[C@@H](O)C[C@@H](O)CC(=O)O)[C@H]21` [pravastatin] here?
Its value is 0.61.

What about the “HR (hazard ratio for stroke, pravastatin vs placebo)” value ([1]; adjusted (age, male, current smoking, hypertension, diabetes, BMI, baseline LDL, HDL)) of the same molecule?
Its value is 0.92.

What about the “HR (hazard ratio for stroke, pravastatin vs placebo)” value ([1]; unadjusted) of the same molecule?
The value was 0.85.

What about the “EVENTS (number of stroke events)” value ([1]; rs10757274, adjusted analysis, mode REC, genotype GA + AA, pravastatin arm, total 1018) of the same molecule?
Its value is 47.

What about the “HR_RESP (hazard ratio, pravastatin-treated versus placebo-treated)” value ([2]; hCV2091644 rs1010 VAMP8, GENO_RESP CC + CT, MODE DOM, STRATA no hist) of the same molecule?
The value was 0.786.

And the “HR_RESP (hazard ratio, pravastatin-treated versus placebo-treated)” value ([2]; hCV2169762 rs1804689 HPS1, GENO_RESP GG + GT, MODE REC, STRATA hist)?
Its value is 1.028.

What about the “HR_RESP (hazard ratio, pravastatin-treated versus placebo-treated)” value ([2]; hCV2169762 rs1804689 HPS1, GENO_RESP TT + GT, MODE DOM, STRATA no hist) of the same molecule?
The value was 1.266.

And the EVENTS_RESP ([2]; hCV2169762 rs1804689 HPS1, GENO_RESP TT, MODE GEN, STRATA hist)?
The EVENTS_RESP was 5.

What about the “HR_RESP (hazard ratio, pravastatin-treated versus placebo-treated)” value ([2]; hCV29539757 rs10110659 KCNQ3, GENO_RESP CC + AC, MODE REC, STRATA hist) of the same molecule?
Its value is 1.009.
